Patent US11129829B2, “Methods for modulating splicing” (Skyhawk Therapeutics, Inc., priority 2019, dated 2021)

Columns and labels:
Assay type in all cases: cell-based
A-673 = A-673 cell viability
FoxM1 A mRNA = assay: Splice EC50: FoxM1 A mRNA increase (exon excluded); details: read-out: Splice EC50 (nM)^B
FoxM1 BC mRNA = assay: Splice IC50: FoxM1 BC mRNA decrease (exon included); details: read-out: Splice IC50 (nM)^C
[1] = Homo sapiens, A673, Cell viability

| SMILES | IC50 (A-673; [1]) | EC50 (FoxM1 A mRNA) | IC50 (FoxM1 BC mRNA) | IC50 (A-673; Cell viability) |
| --- | --- | --- | --- | --- |
| Cc1cn(-c2ccc(-c3ccc(N(C)[C@H]4C[C@]5(C)CC[C@](C)(C4)N5)nn3)c(O)c2)cn1 [compound 177, 2-(6-(((1R,3S,5S)-1,5-dimethyl-8-azabicyclo[3.2.1]octan-3-yl)(methyl)amino)pyridazin-3-yl)-5-(4-methyl-1H-imidazol-1-yl)phenol] | 10 to 100 nM | < 10 nM | < 10 nM | – |
| Oc1cc(-c2cn[nH]c2)ccc1-c1ccc(O[C@@H]2C[C@H]3COC[C@@H](C2)N3)nn1 [compound 159, 2-(6-(((1R,5S,7r)-3-oxa-9-azabicyclo[3.3.1]nonan-7-yl)oxy)pyridazin-3-yl)-5-(1H-pyrazol-4-yl)phenol] | 501 to 1000 nM | 251 to 500 nM | 501 to 1000 nM | – |
| Oc1cc(-c2c[nH]nn2)ccc1-c1ccc(O[C@@H]2C[C@H]3CC[C@@H](C2)N3)nn1 [compound 253, 2-(6-(((1R,3S,5S)-8-azabicyclo[3.2.1]octan-3-yl)oxy)pyridazin-3-yl)-5-(1H-1,2,3-triazol-4-yl)phenol] | 501 to 1000 nM | 251 to 500 nM | 251 to 500 nM | – |
| CN(c1ccc(-c2ccc(-n3nccn3)cc2O)nn1)[C@@H]1C[C@H]2CCC[C@@H](C1)N2 [compound 275, 2-(6-(((1R,3S,5S)-9-azabicyclo[3.3.1]nonan-3-yl)(methyl)amino)pyridazin-3-yl)-5-(2H-1,2,3-triazol-2-yl)phenol] | – | < 10 nM | < 10 nM | < 10 nM |
| [2H]C([2H])([2H])n1ccc(-c2ccc(-c3ccc(N(C)[C@@H]4C[C@H]5CCC[C@@H](C4)N5)nn3)c(O)c2)cc1=O [compound 284, 4-(4-(6-(((1R,3S,5S)-9-azabicyclo[3.3.1]nonan-3-yl)(methyl)amino)pyridazin-3-yl)-3-hydroxyphenyl)-1-(methyl-d3)pyridin-2(1H)-one] | < 10 nM | > 1000 nM | < 10 nM | – |
